Measurements as given in PMC7236970 (Clinical Epigenetics, 2020).
Each block holds one compound with its values, some of them ahead of it.

What was measured:
total HDAC = assay: In vitro HDAC activity assay, total HDAC; format: biochemical; settings: for IC50: read-out: IC50 values against total HDAC activity; for total HDAC activity remaining: 2 μM SAHA or 0.1 μM MAKV-8
Description: (§1) In vitro HDAC activities were measured as previously described. IC50 values against the various HDAC activities were determined using nonlinear regression in Prism 8.0 software (GraphPad Software, Inc., La Jolla, CA, USA).

K-562 cells [1] = assay: Cell proliferation and viability, Trypan Blue exclusion; format: cell-based, human; settings: for concentration from which cell death was triggered / cell viability decreased / concentration from which cell proliferation was reduced: K-562, 48 h
Description: (§4) Cell viability and proliferation were evaluated using the Trypan Blue exclusion method (BioWhittaker ®). Cells were processed using a semi-automated image-based cell analyzer (Cedex XS Innovatis, Roche, Luxembourg, Luxembourg), which provided the cell number as well as cell viability based on the fraction of trypan blue-positive cells.

Acetyl α-tubulin = assay: Western blot of α-tubulin acetylation in K-562 cells; format: cell-based, human; settings: for effect on α-tubulin acetylation (in words): increasing concentrations
Description: (§2) Cells were lyzed in 10% (v/v) Mammalian Protein Extraction Reagent solution (MPER®; Thermofisher, Erembodegen, Belgium) supplemented with 1× protease inhibitor cocktail (Complete EDTA-free, Roche) according to the manufacturer’s instructions. Histone enrichment was performed in acidic conditions as previously described. The protein concentration was determined using the Bradford assay (BioRad).

Acetyl histone H4 = assay: Western blot of histone H4 acetylation in K-562 cells; format: cell-based, human; settings: for effect on histone H4 acetylation (in words): increasing concentrations
Description: as §2

K-562 cells [2] = assay: Cellular ALDH activity (ALDEFLUOR), ALDH+ LSC fraction; format: cell-based, human; settings: K-562, 24 h; for ALDH+ cell percentage: untreated cells 50%
Description: Cellular ALDH activity was assessed using the ALDEFLUOR^TM kit (StemCell Technologies Inc.) according to the manufacturer’s procedure. Diethylaminobenzaldehyde, a specific inhibitor of ALDH activity, was used to differentiate cells with low or high ALDH activity.

PBMCs [3] = test system: PBMCs
Description: (§5) PBMCs were isolated from the blood of healthy adult human donors obtained from the Red Cross (Luxembourg, Luxembourg) and purified as previously reported [43].
as §4

PBMCs [4] = assay: Healthy cell viability, Trypan Blue exclusion; settings: 48 h
Description: as §5, §4

RPMI-1788 cells = assay: Healthy cell model viability, nuclear morphology; format: cell-based, human; settings: RPMI-1788, 48 h, 10 μM MAKV-8
Description: PBMCs were isolated from the blood of healthy adult human donors obtained from the Red Cross (Luxembourg, Luxembourg) and purified as previously reported [43]. […] Platelets from healthy adult human donors were provided by the Red Cross.

[5] = test system: K-562 cells xenografted in zebrafish; assay: Zebrafish cancer cell xenograft; format: in vivo; settings: K-562 cells treated 24 h, injected into zebrafish yolk sac, three days post-injection
Description: Cancer xenograft assays in zebrafish were performed as previously described using cells stained with 2 μM CM-Dil (Invitrogen) and diluted in 1× PBS supplemented with 1% phenol red sodium salt solution.

MEG-01 cells [6] = assay: Cell proliferation and viability, Trypan Blue exclusion; format: cell-based, human
Description: as §4

platelets = assay: Platelet viability, flow cytometry after Annexin V staining; format: cell-based, human; settings: 48 h
Description: Phosphatidylserine exposure was evaluated using the FITC Annexin V Apoptosis Detection Kit I (BD Biosciences) according to the supplier’s instructions. Stained samples were processed through a cytometer (FACS Calibur, BD Biosciences), and data were recorded statistically (10,000 events/sample) using the CellQuest Pro software (BD, Biosciences). Data were analyzed using the Flow-Jo 8.8.5 software.

recombinant HDAC6 = biological target: T1, recombinant HDAC6 (Homo sapiens, UniProt Q9UBN7); assay: In vitro HDAC activity assay, recombinant HDAC6; format: biochemical; settings: read-out: IC50 recombinant HDAC6 deacetylase activity
T1 sequence (Q9UBN7 1-1215): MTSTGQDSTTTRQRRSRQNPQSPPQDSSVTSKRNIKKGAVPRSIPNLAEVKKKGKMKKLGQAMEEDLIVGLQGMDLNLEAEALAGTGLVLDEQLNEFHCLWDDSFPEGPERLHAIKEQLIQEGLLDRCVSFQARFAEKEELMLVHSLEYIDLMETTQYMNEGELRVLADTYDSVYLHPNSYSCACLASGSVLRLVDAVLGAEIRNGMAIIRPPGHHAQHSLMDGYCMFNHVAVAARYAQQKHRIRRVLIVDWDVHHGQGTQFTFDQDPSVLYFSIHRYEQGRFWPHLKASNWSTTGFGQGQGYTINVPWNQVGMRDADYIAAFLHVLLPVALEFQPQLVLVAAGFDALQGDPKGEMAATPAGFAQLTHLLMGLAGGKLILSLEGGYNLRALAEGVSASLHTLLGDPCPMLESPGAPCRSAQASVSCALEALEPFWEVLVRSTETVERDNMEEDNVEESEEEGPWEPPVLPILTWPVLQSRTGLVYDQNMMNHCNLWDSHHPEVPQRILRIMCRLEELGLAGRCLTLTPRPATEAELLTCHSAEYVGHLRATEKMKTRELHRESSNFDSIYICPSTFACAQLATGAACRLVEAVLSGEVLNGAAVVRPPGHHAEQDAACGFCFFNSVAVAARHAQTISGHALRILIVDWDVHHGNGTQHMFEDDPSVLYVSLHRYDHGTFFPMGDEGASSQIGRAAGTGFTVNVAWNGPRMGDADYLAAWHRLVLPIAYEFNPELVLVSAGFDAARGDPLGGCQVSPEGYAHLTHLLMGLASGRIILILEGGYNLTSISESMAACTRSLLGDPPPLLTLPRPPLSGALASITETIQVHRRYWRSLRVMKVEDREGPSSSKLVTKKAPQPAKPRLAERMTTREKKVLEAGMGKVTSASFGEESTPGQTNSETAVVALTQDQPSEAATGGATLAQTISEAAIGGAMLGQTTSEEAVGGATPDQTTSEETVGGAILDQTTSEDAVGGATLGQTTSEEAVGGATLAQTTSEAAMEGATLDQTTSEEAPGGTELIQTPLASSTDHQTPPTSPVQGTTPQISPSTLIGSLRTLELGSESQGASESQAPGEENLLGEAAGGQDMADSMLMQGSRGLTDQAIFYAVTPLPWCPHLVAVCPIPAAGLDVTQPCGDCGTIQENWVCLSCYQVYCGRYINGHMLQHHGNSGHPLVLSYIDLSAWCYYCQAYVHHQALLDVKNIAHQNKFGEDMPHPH
Description: as §1

recombinant HDAC1 = recombinant HDAC1 (Homo sapiens, UniProt Q13547); assay: In vitro HDAC activity assay, recombinant HDAC1; format: biochemical; settings: read-out: IC50 recombinant HDAC1 deacetylase activity
Description: as §1

KBM-5 cells [7] = assay: Cell proliferation and viability, Trypan Blue exclusion; format: cell-based, human
Description: as §4

K-562 cells [8] = assay: Colony formation assay in methylcellulose; format: cell-based, human; settings: K-562, 10 days
Description: (§3) For colony formation assays, 1000 cells were grown in 1 mL of semi-solid methylcellulose medium (Methocult H4230, StemCell Technologies Inc., Grenoble, France) supplemented with 10% heat-inactivated FCS (BioWhittaker ®) in 12-well plates. Colonies were detected after 10 days of culturing by adding 5 mg/mL 3-(4,5-dimethylthiazol-2-yl)-2,5-diphenyltetrazoliumbromide (MTT) reagent (Sigma-Aldrich) and incubating for 15 min at 37 °C. Pictures were taken with the GelDoc XR+ System (BioRad, Temse, Belgium), and quantifications were conducted using Image J software (US National Institute of Health, Bethesda, MD, USA).

MEG-01 cells [9] = assay: Colony formation assay in methylcellulose; format: cell-based, human; settings: MEG-01, 10 days
Description: as §3

KBM-5 cells [10] = assay: Colony formation assay in methylcellulose; format: cell-based, human; settings: KBM-5, 10 days
Description: as §3

HDAC6 = test system: HDAC6; design: method as in PMID 18642892; settings: in vitro; read-out: IC50 towards HDAC6; cited from earlier work
K-562 cells [11] = assay: Cyto-ID quantification of autophagic vesicles; format: cell-based, human; settings: K-562, 8 h, Cyto-ID staining
Description: For fluorescence microscopy, the Cyto-ID® Autophagy Detection Kit (Enzo Life Science) was used according to the manufacturer’s instructions. […] Green fluorescent autophagy-related organelles (pre-autophagosomes, autophagosomes, and autophagolysosomes) were quantified as green signal area per cell nucleus as advised by the manufacturer. Segmentation of these areas was based on 31 parameters assessing color, texture, and edge and was carried out in Ilastik, version 1.3.0 developed by the European Molecular Biology Laboratory, Heidelberg. Classifiers trained for these parameters on a set of representative images were then applied to batch process multiple images as described in Ilastik’s user manual. Binary masks thus obtained were measured in FIJI [59] after applying a size filter to remove small size artifacts resulting from segmentation.

HDAC3 = test system: HDAC3; design: method as in PMID 18642892; settings: in vitro; read-out: IC50 towards HDAC3; cited from earlier work

Sequence of recombinant HDAC1 (Q13547 whole entry): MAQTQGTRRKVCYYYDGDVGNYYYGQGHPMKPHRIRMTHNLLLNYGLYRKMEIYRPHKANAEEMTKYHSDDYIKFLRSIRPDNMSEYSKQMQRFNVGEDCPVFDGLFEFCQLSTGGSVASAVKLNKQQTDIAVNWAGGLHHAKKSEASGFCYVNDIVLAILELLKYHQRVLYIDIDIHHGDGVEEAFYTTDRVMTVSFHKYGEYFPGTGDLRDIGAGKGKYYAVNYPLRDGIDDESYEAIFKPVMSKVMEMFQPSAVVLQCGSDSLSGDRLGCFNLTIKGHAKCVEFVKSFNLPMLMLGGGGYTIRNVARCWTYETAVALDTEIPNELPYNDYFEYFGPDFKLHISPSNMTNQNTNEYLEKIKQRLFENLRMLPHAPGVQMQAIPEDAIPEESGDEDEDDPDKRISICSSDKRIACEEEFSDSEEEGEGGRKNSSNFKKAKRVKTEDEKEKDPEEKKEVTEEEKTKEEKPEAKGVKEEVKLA

Structure (SMILES): COC(=O)CCCCCCNC(=O)c1cc(-c2cccc(NC(=O)OC(C)(C)C)c2)on1 [MAKV-10]
- concentration up to which HDAC activities were not inhibited (total HDAC; in vitro): > 100 µM
- IC50 (total HDAC; in vitro): > 100000 nM
- effect on cell proliferation and viability (in words) (K-562 cells [1]; K-562, up to 72 h): neither MAKV-10 nor MAKV-12 impacted K-562 cell proliferation and viability
- effect on α-tubulin acetylation (in words) (Acetyl α-tubulin; 24 h): did not augment protein target acetylation levels
- effect on histone H4 acetylation (in words) (Acetyl histone H4; 24 h): did not augment protein target acetylation levels

Structure (SMILES): COC(=O)CCCCCCNC(=O)c1cc(-c2cccc(N)c2)on1 [MAKV-12]
- concentration up to which HDAC activities were not inhibited (total HDAC; in vitro): > 100 µM
- IC50 (total HDAC; in vitro): > 100000 nM
- effect on cell proliferation and viability (in words) (K-562 cells [1]; K-562, up to 72 h): neither MAKV-10 nor MAKV-12 impacted K-562 cell proliferation and viability
- effect on α-tubulin acetylation (in words) (Acetyl α-tubulin; 24 h): did not augment protein target acetylation levels
- effect on histone H4 acetylation (in words) (Acetyl histone H4; 24 h): did not augment protein target acetylation levels

Structure (SMILES): O=C(CCCCCCC(=O)Nc1ccccc1)NO [SAHA, suberoylanilide hydroxamic acid, reference compound]
- effect on ALDH+ cell proportion (in words) (K-562 cells [2]): failed to reduce the ALDH^+ cell proportion
- total HDAC activity remaining (total HDAC): about 10%

Structure (SMILES): Cc1ccc(NC(=O)c2ccc(CN3CCN(C)CC3)cc2)cc1Nc1nccc(-c2cccnc2)n1 [imatinib]
- ALDH+ cell percentage (K-562 cells [2]): 30%
- cell mortality (in words) (PBMCs [3]): failed to trigger any cell mortality

More lines, in order of falling IC50 (total HDAC; in vitro), values ahead:

- IC50 values against total HDAC activities (in words) (total HDAC; in vitro): low micromolar range
- IC50 (total HDAC; in vitro): 22000 nM
Structure (SMILES): CC(C)(C)OC(=O)Nc1ccc(-c2cc(C(=O)NO)no2)cc1 [MAKV-7]
- concentration from which cell death was triggered / cell viability decreased (K-562 cells [1]): ≥ 25 µM
- concentration from which cell proliferation was reduced (K-562 cells [1]): ≥ 10 µM
- effect on α-tubulin acetylation (in words) (Acetyl α-tubulin; 24 h): failed to increase α-tubulin acetylation
- effect on histone H4 acetylation (in words) (Acetyl histone H4; 24 h): increased histone H4 acetylation only at the highest concentrations

- IC50 values against total HDAC activities (in words) (total HDAC; in vitro): low micromolar range
- IC50 (total HDAC; in vitro): 1050 ± 220 nM
Structure (SMILES): CC(C)(C)OC(=O)Nc1cccc(-c2cc(C(=O)NO)no2)c1 [MAKV-6]
- concentration from which cell death was triggered / cell viability decreased (K-562 cells [1]): ≥ 25 µM
- concentration from which cell proliferation was reduced (K-562 cells [1]): ≥ 5 µM
- effect on α-tubulin acetylation (in words) (Acetyl α-tubulin; 24 h): failed to increase α-tubulin acetylation
- effect on histone H4 acetylation (in words) (Acetyl histone H4; 24 h): increased histone H4 acetylation only at the highest concentrations

- IC50 (total HDAC; in vitro): 5.8 ± 3.8 nM
- EC50 (Acetyl α-tubulin; Homo sapiens, K562, 24 h, western blot quantification, read-out: EC50 half-maximal acetylation of α-tubulin): 12100 ± 900 nM
- IC50 (recombinant HDAC6): 11.4 nM
- IC50 (recombinant HDAC1): 2.6 nM
- EC50 (Acetyl histone H4; Homo sapiens, K562, 24 h, western blot quantification, read-out: EC50 half-maximal acetylation of histone H4): 5900 ± 1400 nM
Structure (SMILES): CC(C)(C)OC(=O)Nc1cccc(-c2cc(C(=O)NCCCCCCC(=O)NO)no2)c1 [MAKV-8]
- ALDH+ cell percentage (K-562 cells [2]): 24%
- maximum decrease of viable cells (PBMCs [4]): ≤ 30%
- total HDAC activity remaining (total HDAC): about 10%
- potency as pan-HDACi relative to SAHA (total HDAC; in vitro): 10 times
- reduction of living cells (RPMI-1788 cells): about 55%
- tumor formation / tumor volume (in words) [5]: unable to significantly reduce tumor volumes
- concentration from which cell death was triggered / cell viability decreased (K-562 cells [1]): ≥ 10 µM
- concentration from which cell growth was inhibited (K-562 cells [1]; K-562, up to 72 h): about 3 μM
- time at which increase in α-tubulin acetylation begins (Acetyl α-tubulin; 15 µM MAKV-8): ≥ 2 h
- concentration from which α-tubulin acetylation was induced (Acetyl α-tubulin; 24 h): ≥ 5 µM
- concentration from which cell death was triggered (MEG-01 cells [6]; MEG-01, 48 h): ≥ 10 µM
- concentration from which cell growth was inhibited (MEG-01 cells [6]; MEG-01, up to 72 h): about 3 μM
- cytotoxicity in platelets (in words) (platelets): neither alone nor in co-treatments elicited any significant cytotoxicity in platelets
- concentration from which cell death was triggered (KBM-5 cells [7]; KBM-5, 48 h): ≥ 10 µM
- concentration from which cell growth was inhibited (KBM-5 cells [7]; KBM-5, up to 72 h): about 3 μM
- concentration from which colony formation (replicative ability, 3D model) was strongly reduced (K-562 cells [8]): ≥ 5 µM
- concentration from which colony formation (replicative ability, 3D model) was strongly reduced (MEG-01 cells [9]): ≥ 5 µM
- concentration from which colony formation (replicative ability, 3D model) was strongly reduced (KBM-5 cells [10]): ≥ 10 µM
- time at which increase in histone H4 acetylation begins (Acetyl histone H4; 15 µM MAKV-8): ≥ 2 h
- concentration from which histone H4 acetylation was induced (Acetyl histone H4; 24 h): ≥ 1 µM
- IC50 (HDAC6): 0.002 nM
- autophagic signal area per nucleus compared to controls (K-562 cells [11]): about 1.5 times
- IC50 (HDAC3): 0.002 nM
